According to PubChem BioAssay (NCI):
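Test compounds were applied to cells in 96-well plates for 48 hours at 5 doses. TGI marks complete inhibition of growth.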

What was measured:
Assay in all cases: NCI tumour cell line growth inhibition, 48 h
[1] = tested on: 786-0 renal
[2] = tested on: A498 renal
[3] = tested on: A549 NSCLC
[4] = tested on: ACHN renal
[5] = tested on: BT-549 breast
[6] = tested on: CAKI-1 renal
[7] = tested on: CCRF-CEM leukemia
[8] = tested on: COLO 205 colon
[9] = tested on: DU-145 prostate
[10] = tested on: EKVX NSCLC
[11] = tested on: HCT-116 colon
[12] = tested on: HCT-15 colon
[13] = tested on: HL-60(TB) leukemia
[14] = tested on: HOP-62 NSCLC
[15] = tested on: HOP-92 NSCLC
[16] = tested on: HS 578T breast
[17] = tested on: HT29 colon
[18] = tested on: IGROV1 ovarian
[19] = tested on: K-562 leukemia
[20] = tested on: KM12 colon
[21] = tested on: LOX IMVI melanoma
[22] = tested on: M14 melanoma
[23] = tested on: MALME-3M melanoma
[24] = tested on: MCF7 breast
[25] = tested on: MDA-MB-231 breast
[26] = tested on: MDA-MB-435
[27] = tested on: MDA-N
[28] = tested on: MOLT-4 leukemia
[29] = tested on: NCI-H226 lung
[30] = tested on: NCI-H23 lung
[31] = tested on: NCI-H460 lung
[32] = tested on: NCI-H522 lung
[33] = tested on: NCI/ADR-RES ovarian
[34] = tested on: OVCAR-3 ovarian
[35] = tested on: OVCAR-4 ovarian
[36] = tested on: OVCAR-5 ovarian
[37] = tested on: OVCAR-8 ovarian
[38] = tested on: PC-3 prostate
[39] = tested on: RPMI-8226 leukemia
[40] = tested on: RXF 393 renal
[41] = tested on: SF-268 CNS
[42] = tested on: SF-295 CNS
[43] = tested on: SF-539 CNS
[44] = tested on: SK-MEL-2 melanoma
[45] = tested on: SK-MEL-28 melanoma
[46] = tested on: SK-MEL-5 melanoma
[47] = tested on: SK-OV-3 ovarian
[48] = tested on: SN12C renal
[49] = tested on: SNB-19 CNS
[50] = tested on: SNB-75 CNS
[51] = tested on: SR leukemia
[52] = tested on: SW-620 colon
[53] = tested on: T-47D breast
[54] = tested on: TK-10 renal
[55] = tested on: U251 CNS
[56] = tested on: UACC-257 melanoma
[57] = tested on: UACC-62 melanoma
[58] = tested on: UO-31 renal
[59] = tested on: HCC-2998 colon

Measured: TGI

O=C(O)C(C(F)(F)F)C(F)(F)F (tested in a mixture with another compound)
> 100 µM: [1] | [2] | [3] | [4] | [5] | [6] | [7] | [8] | [9] | [10] | [11] | [12] | [13] | [14] | [15] | [16] | [17] | [18] | [19] | [20] | [21] | [22] | [23] | [24] | [25] | [26] | [27] | [28] | [29] | [30] | [31] | [32] | [33] | [34] | [35] | [36] | [37] | [38] | [39] | [40] | [41] | [42] | [43] | [44] | [45] | [46] | [47] | [48] | [49] | [50] | [51] | [52] | [53] | [54] | [55] | [56] | [57] | [58]

CCCCCCCCCCCCCC/C(C(=O)O)=C(\C)C(=O)O
> 100 µM: [1] | [2] | [3] | [4] | [5] | [7] | [8] | [9] | [10] | [59] | [11] | [12] | [13] | [14] | [15] | [16] | [17] | [18] | [19] | [20] | [21] | [22] | [23] | [24] | [25] | [26] | [27] | [28] | [29] | [30] | [31] | [32] | [33] | [34] | [35] | [36] | [37] | [38] | [39] | [40] | [41] | [42] | [43] | [44] | [45] | [46] | [47] | [48] | [49] | [50] | [51] | [52] | [53] | [54] | [55] | [56] | [57] | [58]
